The values that follow come from PubChem BioAssay (NCI).

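Values below derive from 48-hour exposures of cells grown in 96-well plates, with endpoints linearly interpolated between the two concentrations bracketing the appropriate inhibition level. The concentration for 50% growth inhibition is given as GI50. TGI is the concentration that stops growth completely.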

Among the test systems are HOP-18 NSCLC; P388/ADR leukemia; SN12K1 renal; P388 leukemia; KM20L2 colon; XF 498 CNS; DMS 114 small cell lung; MDA-N; DMS 273 small cell lung; RXF-631 renal; LXFL 529 NSCLC.
What all share (assay): NCI tumour cell line growth inhibition, 48 h

Turning to `CNC(=O)OCc1nc(SC)n(C)c1COC(=O)NC`, the TGI with HOP-18 NSCLC stood at 491 µM; in the experiment on P388/ADR leukemia, 611 µM; with SN12K1 renal, 250 µM; in the experiment with P388 leukemia it was 331 µM; in the experiment on KM20L2 colon, 482 µM; in the experiment with XF 498 CNS it was 446 µM. The TGI with DMS 114 small cell lung was determined as 199 µM; with MDA-N it was 310 µM; with DMS 273 small cell lung it was 251 µM.
For `O=C(/C=C/c1ccccc1O)c1ccccc1Cl`, the TGI was over 100 µM in the experiment on HOP-18 NSCLC; over 100 µM with RXF-631 renal; over 100 µM in the experiment with KM20L2 colon; over 100 µM in the experiment on LXFL 529 NSCLC; over 100 µM in the experiment on XF 498 CNS; 58 µM in the experiment with DMS 114 small cell lung. In the experiment with DMS 273 small cell lung, this molecule had a TGI of over 100 µM.
`O=c1[nH]cnc2n[nH]nc12`: the TGI in the experiment on HOP-18 NSCLC was over 100 µM; with KM20L2 colon it was over 100 µM; in the experiment with LXFL 529 NSCLC, over 100 µM; in the experiment on XF 498 CNS, 83.5 µM; in the experiment on DMS 114 small cell lung, 56.1 µM; in the experiment on DMS 273 small cell lung, over 100 µM.
Take `CC1(C)OC(=O)C(=C2CCC(C(=O)Nc3cccc(C(F)(F)F)c3)N2)C(=O)O1` (stereo not drawn): the TGI with HOP-18 NSCLC was over 100 µM; in the experiment with KM20L2 colon it was over 100 µM; with LXFL 529 NSCLC, over 100 µM; in the experiment on XF 498 CNS, 89.8 µM; in the experiment with DMS 114 small cell lung it was over 100 µM; with DMS 273 small cell lung it was over 100 µM.
As to `COc1cc2c(c(OC)c1OC)C(=O)NCCC2`, the TGI in the experiment with HOP-18 NSCLC, in the experiment with P388/ADR leukemia, in the experiment with SN12K1 renal, in the experiment on P388 leukemia, with KM20L2 colon and with LXFL 529 NSCLC was over 100 µM each time. Besides, the TGI in the experiment with XF 498 CNS, in the experiment on DMS 114 small cell lung and in the experiment on DMS 273 small cell lung was over 100 µM in each case.
Take `OCC(O)C(O)C(O)c1nn(-c2ccc(F)cc2)c2nc3cc(Cl)c(Cl)cc3nc12` (stereo not drawn): the TGI was 52.7 µM in the experiment with HOP-18 NSCLC; over 100 µM in the experiment on KM20L2 colon; over 100 µM with LXFL 529 NSCLC; 24.6 µM with XF 498 CNS; 71.4 µM with DMS 114 small cell lung; 48.2 µM in the experiment on DMS 273 small cell lung.
As to `C=C1CC[C@H]2C(C)=CC[C@H]3C(=C)C(=O)O[C@@H]3[C@@H]12`, the TGI in the experiment with MDA-N is over 100 µM.
In the case of `Cc1ccc(S(=O)C(C)C(Cl)c2ccccc2)cc1` (stereo not drawn), the TGI with HOP-18 NSCLC, in the experiment with KM20L2 colon, with LXFL 529 NSCLC, in the experiment with DMS 114 small cell lung and in the experiment on DMS 273 small cell lung was over 100 µM in each case.
The molecule `CC(=O)OCC1OC(n2c3c(cc(C#N)c2=S)CCCC3)C(OC(C)=O)C(OC(C)=O)C1OC(C)=O` (stereo not drawn) had a TGI with MDA-N of over 100 µM.
Turning to `COc1ccc(Br)c(C(=O)N2CCc3ccccc32)c1N`, the TGI in the experiment on HOP-18 NSCLC is over 100 µM; in the experiment with KM20L2 colon, over 100 µM; with LXFL 529 NSCLC, over 100 µM; in the experiment with XF 498 CNS, over 100 µM; with DMS 114 small cell lung it was 79.4 µM; in the experiment with DMS 273 small cell lung it was 99.3 µM.
`O=NNc1ccc(S(=O)(=O)c2ccc3ccccc3c2)cn1` showed a TGI in the experiment on MDA-N of over 100 µM.
The same measure, in the same setting: then `Nc1ncc2ncn(C3CCC(CO)O3)c2n1` (stereo not drawn), with over 100 µM.
With `O=C(O)CSc1n[nH]c(-c2ccco2)n1`, the TGI with RXF-631 renal, in the experiment on KM20L2 colon, in the experiment on LXFL 529 NSCLC, in the experiment on XF 498 CNS and in the experiment on DMS 273 small cell lung was over 100 µM in each case.
On to `N#CCc1cccc(CC#N)c1Br`, for which the TGI with KM20L2 colon, in the experiment on LXFL 529 NSCLC, in the experiment with XF 498 CNS, in the experiment with DMS 114 small cell lung and with DMS 273 small cell lung was over 100 µM each time.
With `N#[N+]c1ccc(Nc2ccccc2)cc1`, in the experiment on MDA-N, the GI50 was over 50 µg/mL and the TGI is over 50 µg/mL.
Turning to `COc1ccccc1C(=O)N(Cc1ccccc1)c1ccc(Cl)c(C(=O)OC(C)C)c1`, the TGI in the experiment on HOP-18 NSCLC is 56.3 µM; in the experiment with RXF-631 renal, over 100 µM; with KM20L2 colon it was over 100 µM; in the experiment on LXFL 529 NSCLC, over 100 µM; in the experiment on XF 498 CNS, 43.4 µM; with DMS 114 small cell lung it was 56 µM. Besides, the TGI was over 100 µM in the experiment with MDA-N and 37.5 µM in the experiment with DMS 273 small cell lung.
Consider `COc1ccccc1NC(=O)C1=C(C)NC(C)=C(C(=O)Nc2ccccc2OC)C1c1ccco1`, for which the TGI is 73.9 µM in the experiment on HOP-18 NSCLC; over 92.6 µM in the experiment with RXF-631 renal; 13 µM in the experiment on KM20L2 colon; over 100 µM in the experiment with LXFL 529 NSCLC; over 100 µM in the experiment with XF 498 CNS; 7.53 µM in the experiment on DMS 114 small cell lung. Besides, the TGI in the experiment with MDA-N and in the experiment with DMS 273 small cell lung was over 100 µM in each case.
The molecule `COc1cc2c3cc1Oc1c(OC)c(OC)cc4c1C(Cc1ccc(O)c(c1)Oc1ccc(cc1)CC3N(C)CC2)N(C)CC4` (stereo not drawn) showed a TGI in the experiment with MDA-N of 60 µM.
On the same count and under the same terms, the figure for `CC1OC(OC2C(O)C(O)C(O)C(O)C2O)C(N)CC1N=C(N)C(=O)O` (stereo not drawn) is over 100 µM; for `O=C(O)c1ccccc1NCn1c(=S)sc2ccccc21` it is over 100 µM.
Regarding `CCN(c1ccccc1)[C@H]1C(=O)N(c2ccc([N+](=O)[O-])cc2)[C@H]1c1ccc(OC)cc1`, the TGI with RXF-631 renal, with LXFL 529 NSCLC, in the experiment on DMS 114 small cell lung and in the experiment with DMS 273 small cell lung was over 100 µM in each case.
`Cn1c(=O)c2c(nc(N/N=C/c3ccccc3C(=O)O)n2C)n(C)c1=O` had a TGI with MDA-N of over 100 µM.
Consider `Cc1nc2ccccc2c(=O)n1/N=C(\N=Nc1cc(Cl)ccc1Cl)c1ccccc1`, for which the TGI with HOP-18 NSCLC is 44.9 µM; in the experiment on KM20L2 colon, 4.47 µM; in the experiment with LXFL 529 NSCLC it was over 100 µM; with XF 498 CNS, over 100 µM; in the experiment on DMS 114 small cell lung it was 82.4 µM; in the experiment with DMS 273 small cell lung, over 100 µM.
On to `COc1cccc(/C=N\NC(=O)C(C)SC(C)C(=O)N/N=C/c2cccc(OC)c2)c1` (stereo not drawn), for which the TGI in the experiment with KM20L2 colon is over 100 µM; with LXFL 529 NSCLC it was over 100 µM; in the experiment with XF 498 CNS, over 100 µM; in the experiment with DMS 114 small cell lung, 41.6 µM; with DMS 273 small cell lung, 97 µM.
`Clc1ccc(CN2CCCN(Cc3ccc(Cl)cc3)C2c2cc3ccccc3c3ccccc23)cc1` came in with a TGI in the experiment with MDA-N of over 100 µM.
Consider `C1=CC2CCC1CN2CCC1CNc2ccccc21` (stereo not drawn), for which the TGI in the experiment with HOP-18 NSCLC, in the experiment on KM20L2 colon, in the experiment with LXFL 529 NSCLC, with XF 498 CNS, in the experiment with DMS 114 small cell lung and in the experiment with DMS 273 small cell lung was over 100 µM in each case.
Turning to `COc1ccc(/C=N/NS(=O)(=O)c2ccccc2)cc1`, the TGI in the experiment with HOP-18 NSCLC, in the experiment with KM20L2 colon, in the experiment with LXFL 529 NSCLC, in the experiment with XF 498 CNS, in the experiment with DMS 114 small cell lung and with DMS 273 small cell lung was over 100 µM throughout.
As to `COc1cc(OC)c2c(=O)c3cccc([N+](=O)[O-])c3n(C)c2c1`, the TGI in the experiment with RXF-631 renal, in the experiment with KM20L2 colon, with LXFL 529 NSCLC, in the experiment on XF 498 CNS, in the experiment with DMS 114 small cell lung and in the experiment with DMS 273 small cell lung was over 100 µM each time.
Turning to `OCCN(CO)CO`, in the experiment with MDA-N, the TGI was over 100 µM.
Regarding `CCCCC1(C(NC(=O)c2ccccc2Cl)c2ccncc2)C(=O)N(c2ccccc2)N(c2ccccc2)C1=O` (stereo not drawn), the TGI with HOP-18 NSCLC, in the experiment with KM20L2 colon, in the experiment on LXFL 529 NSCLC, with XF 498 CNS, in the experiment with DMS 114 small cell lung and with DMS 273 small cell lung was over 100 µM in each case.
Take `C[C@H]1CC[P+](C)(c2ccccc2)C1` (stereo partly drawn): the TGI in the experiment on HOP-18 NSCLC, with KM20L2 colon, with LXFL 529 NSCLC, in the experiment with DMS 114 small cell lung and in the experiment with DMS 273 small cell lung was over 100 µM each time.
In the case of `CCCCCC[C@H]1C(=O)O[C@H](C)[C@H](NC(=O)c2cccc(NC=O)c2OC)C(=O)O[C@@H](C)[C@@H]1OC(=O)CCC` (tested in a mixture with another compound), in the experiment on MDA-N, the GI50 is 11.1 µM and the TGI was determined as 45.2 µM.
`COc1cc(N(C)C)c(OC)cc1C=C1C=CC=C1` displayed a TGI with MDA-N of over 100 µM.
As to `NCCCN=c1ccc2c3c1c(O)c1c(O)ccc(=O)c1c3[nH]n2CCNCCO`, the TGI in the experiment on HOP-18 NSCLC was 17.8 µM; in the experiment with P388/ADR leukemia, 100 µM; in the experiment on SN12K1 renal, 16.3 µM; with P388 leukemia, 6.13 µM; with KM20L2 colon, 38.4 µM; with XF 498 CNS, 6.05 µM. Besides, the figures for the TGI with DMS 114 small cell lung, in the experiment on MDA-N and with DMS 273 small cell lung were over 250 µM, 8.37 µM and 0.403 µM, respectively.
